These results are taken from ChEMBL document CHEMBL1127206, “Preparation and in vitro biological evaluation of the enantiomers of the diydropyridine BMY 20014, a combination calcium and 1-adrenoreceptor antagonist” (Bioorg Med Chem Lett, 1993).

The species entered for one test is Rattus norvegicus. The test can be described thus: Inhibition constant by its ability to inhibit (act through Ca++ ion channel) contractions induced by K+ depolarization in rat dorsal aorta. Format: functional.
For another test, the species on record is Oryctolagus cuniculus. The test can be described thus: Inhibition constant by its ability to inhibit contractions induced by phenylephrine in rabbit dorsal aorta. Format: functional.
Test [1] is described as follows: [Ca2+] channel binding affinity was evaluated by its ability to displace [3H]-PN-200-110 in rat brain synaptosomes. Format: subcellular.
The target of test [2] is T1, Adrenergic receptor alpha-1 (Rattus norvegicus, UniProt P15823+P23944+P43140).
T1 sequence (P15823 whole entry): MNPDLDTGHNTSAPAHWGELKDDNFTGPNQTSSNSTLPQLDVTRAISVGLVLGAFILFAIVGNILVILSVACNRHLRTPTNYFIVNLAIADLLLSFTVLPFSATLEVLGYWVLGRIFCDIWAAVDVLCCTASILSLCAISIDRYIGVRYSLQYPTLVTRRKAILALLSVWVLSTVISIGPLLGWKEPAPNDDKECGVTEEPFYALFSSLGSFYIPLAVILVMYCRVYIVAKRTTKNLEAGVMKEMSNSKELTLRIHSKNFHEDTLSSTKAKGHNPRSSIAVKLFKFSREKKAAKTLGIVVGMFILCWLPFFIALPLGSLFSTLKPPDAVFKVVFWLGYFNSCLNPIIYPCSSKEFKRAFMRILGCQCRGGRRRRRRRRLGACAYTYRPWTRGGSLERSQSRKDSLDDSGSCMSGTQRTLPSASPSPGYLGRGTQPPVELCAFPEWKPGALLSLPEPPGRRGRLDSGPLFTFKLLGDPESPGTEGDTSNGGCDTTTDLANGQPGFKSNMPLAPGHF
T1 sequence (P23944 whole entry): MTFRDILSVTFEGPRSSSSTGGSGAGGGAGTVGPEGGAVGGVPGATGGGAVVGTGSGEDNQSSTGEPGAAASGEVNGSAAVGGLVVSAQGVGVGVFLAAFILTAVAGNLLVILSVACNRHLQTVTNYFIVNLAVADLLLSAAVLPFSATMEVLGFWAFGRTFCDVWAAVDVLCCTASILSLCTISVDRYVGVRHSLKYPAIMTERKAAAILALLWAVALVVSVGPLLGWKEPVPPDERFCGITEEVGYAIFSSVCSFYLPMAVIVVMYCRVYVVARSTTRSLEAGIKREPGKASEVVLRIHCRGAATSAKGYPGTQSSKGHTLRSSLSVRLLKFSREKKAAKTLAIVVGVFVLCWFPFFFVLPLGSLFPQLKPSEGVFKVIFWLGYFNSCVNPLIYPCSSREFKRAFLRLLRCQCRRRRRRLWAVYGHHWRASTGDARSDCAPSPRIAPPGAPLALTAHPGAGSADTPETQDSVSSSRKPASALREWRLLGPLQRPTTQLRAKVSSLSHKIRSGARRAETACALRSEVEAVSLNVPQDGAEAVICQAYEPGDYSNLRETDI
T1 sequence (P43140 whole entry): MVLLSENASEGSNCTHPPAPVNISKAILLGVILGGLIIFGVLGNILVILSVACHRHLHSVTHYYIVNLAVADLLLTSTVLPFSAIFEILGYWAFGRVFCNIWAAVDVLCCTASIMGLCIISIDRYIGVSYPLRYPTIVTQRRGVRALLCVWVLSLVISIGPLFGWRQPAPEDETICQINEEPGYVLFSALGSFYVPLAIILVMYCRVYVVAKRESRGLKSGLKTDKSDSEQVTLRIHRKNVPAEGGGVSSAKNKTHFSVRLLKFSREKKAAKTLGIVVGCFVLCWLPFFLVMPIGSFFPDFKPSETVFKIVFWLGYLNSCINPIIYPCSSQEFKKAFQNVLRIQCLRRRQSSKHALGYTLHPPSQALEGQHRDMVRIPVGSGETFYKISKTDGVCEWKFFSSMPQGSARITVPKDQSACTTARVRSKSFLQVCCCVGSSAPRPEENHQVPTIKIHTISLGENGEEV
The experiment in a line: Alpha-1 adrenergic receptor binding affinity was evaluated by its ability to displace [3H]prazosin in rat brain synaptosomes. The test is classed as subcellular.

Regarding `COc1cc2nc(N3CCN(C(=O)c4ccco4)CC3)nc(N)c2cc1OC` [PRAZOSIN], the Kb in the test listed under Rattus norvegicus is > 1000 nM; in the test listed under Oryctolagus cuniculus it was 1.6 nM. For the same compound, the Ki in test [1] was > 1000 nM.
As for `COC(=O)C1=C(C)NC(C)=C(C(=O)NCCCN2CCN(c3ccccc3OC)CC2)[C@H]1c1cccc([N+](=O)[O-])c1`, the Kb in the test filed under Rattus norvegicus was 2.9 nM; in the test filed under Oryctolagus cuniculus, 8.3 nM. Moreover, the results for the Ki in test [2] and in test [1] were 4.6 nM and 16 nM, respectively.
As to `CO/C(O)=C1\C(C)=NC(C)=C(C(=O)NCCCN2CCN(c3ccccc3OC)CC2)C1c1cccc([N+](=O)[O-])c1` (centres undefined), the Kb in the test filed under Rattus norvegicus was found to be 6.3 nM. Also, the results for the inhibition constant Ki in test [2] and in test [1] were 13 nM and 35 nM, respectively.
For the compound `COC(=O)C1=C(C)NC(C)=C(C(=O)NCCCN2CCN(c3ccccc3OC)CC2)[C@@H]1c1cccc([N+](=O)[O-])c1`, the Kb stood at 107 nM in the test filed under Rattus norvegicus and 50 nM in the test filed under Oryctolagus cuniculus. In addition, the Ki in test [2] was 36 nM; in test [1], 338 nM.
Compound `CO/C(O)=C1\C(C)=NC(C)=C(C(=O)n2ccnc2)[C@@H]1c1cccc([N+](=O)[O-])c1` registered a Kb in the test listed under Rattus norvegicus of 31 nM. Besides, the Ki in test [2] was > 1000 nM; in test [1], 181 nM.
Regarding `COC(=O)C1=C(C)NC(C)=C(C(=O)OC)C1c1ccccc1[N+](=O)[O-]` [NIFEDIPINE], the Kb was 0.5 nM in the test listed under Rattus norvegicus and > 1000 nM in the test filed under Oryctolagus cuniculus. Further, the results for the Ki in test [2] and in test [1] were > 1000 nM and 0.53 nM, respectively.
With `CO/C(O)=C1\C(C)=NC(C)=C(C(=O)n2ccnc2)[C@H]1c1cccc([N+](=O)[O-])c1`, the Kb in the test filed under Rattus norvegicus was 3.6 nM. Besides, the Ki is > 1000 nM in test [2] and 7.8 nM in test [1].
